Measured values as given in patent US20090317419A1, “Tetramers” (Duke University, priority 2008, published 2009).
Values joined by “and” are separate entries in the source; they are usually repeats but may differ in a detail not shown here. Identical values can stand only once. Like-named read-outs stand apart in the source and are kept apart here. Ends that are not written are not given here. * marks the point of attachment. Biotin = O=C1N[C@H]2[C@H](CS[C@H]2CCCCC(=O)*)N1

Legend:
[1] = target: gp41 MPER tetramer; test: SPR, captured mAb, tetramer injected
Chain of gp41 MPER tetramer (P22629 37-163 limits assumed): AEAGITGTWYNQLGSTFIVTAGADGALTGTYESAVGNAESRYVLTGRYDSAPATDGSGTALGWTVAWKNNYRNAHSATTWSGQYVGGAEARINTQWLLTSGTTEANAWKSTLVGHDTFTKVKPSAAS

[2] = target: gp41 ID tetramer; test: SPR, captured mAb, tetramer injected
Chain of gp41 ID tetramer (P22629 37-163 limits assumed): as above

[3] = target: gp41 MPER tetramer; test: flow cytometry, gp41 MPER tetramer on the 13H11 / F39F cell mixture diluted a hundredfold in all with F39F cells (FIG. 4D); the value follows the mixing ratio
[4] = target: gp41 MPER tetramer; test: flow cytometry, gp41 MPER tetramer on the 15% 13H11 / 85% F39F cell mixture diluted tenfold with F39F cells (FIG. 4C); the value follows the mixing ratio
[5] = target: gp41 MPER tetramer; test: flow cytometry, gp41 MPER tetramer on a mixture of 15% 13H11 hybridoma cells and 85% F39F cells (FIG. 4B); the value follows the mixing ratio
[6] = system: 7B2 cells; settings: flow cytometry
Experimental: (§1) Use of antibody-coated beads and cell lines for tetramer quality control. Tetramer stocks were diluted to twice the desired final concentration in PBS containing 1% BSA. An equal volume of beads or cells at 5×10^5 up to 2×10^6 per sample were mixed with tetramer and incubated (4° C.×30 min). Beads or cells were washed with PBS+1% BSA before being fixed in 2% methanol-free formaldehyde (Polysciences, Inc, Warrington, Pa.) in PBS. Samples were stored at 4° C. prior to being analyzed by flow cytometry (BD LSR II, Becton Dickinson, Mountain View, Calif.). Data were analyzed using FlowJo (Tree Star, Ashland, Oreg.). For tetramer titration 40-80 ng tetramer per 10^6 cells/beads was serially diluted over 8-12 points. Optimal concentrations determined by this method were used for subsequent experiments. For cold competition experiments the incubation step was performed by staining with 10-fold excess unlabeled tetramer (4° C.×30 min) prior to the addition of APC-labeled tetramer. For cell dilution experiments, a mixture of mAb cell lines was made and then 1:10 serial dilutions of cells prepared. For cross competition experiments, mixtures of cells were prepared and then stained singly with anti-IgG reagents or tetramer, or the cells were doubly stained with both reagents either sequentially or concurrently.

[7] = system: mAb 7B2 (anti-gp41 immunodominant region); settings: SPR, mAb 7B2 captured
Experimental: (§2) Surface Plasmon Resonance (SPR) measurements of tetramer binding to peptide epitopes. Tetramer binding assays were carried out on a BIAcore 3000 (BIAcore/GE Healthcare, Piscataway, N.J.) instrument using mAbs against each specific B cell epitope.
(§3) Each mAb (about 1000 RU) was first captured on anti-human Fc mAb (Pierce, Rockford, Ill.) immobilized on a CM5 sensor chip. Approximately 3000 RU of anti-human Fc mAb was covalently coupled to each flow cell of the sensor chip as described before (Alam et al, Journal of Immunology 178:4424-4435 (2007)). Each B cell tetramer was injected over its epitope specific mAb or a control surface immobilized with irrelevant mAb. For each tetramer binding curve, non-specific binding signals obtained from the control surface were subtracted. The binding assay was monitored at 25° C. and using PBS, pH 7.4, as the running buffer. The BIAevaluation 3.0 software (BIAcore/GE Healthcare, Piscataway, N.J.) was used for SPR binding data analyses.

[8] = system: mAb 7B2 on beads; settings: flow cytometry
Experimental: (§4) Antibody-coated beads. Carboxyl-polystyrene beads (3.0-3.4 μm) (Spherotech, Inc., Lake Forest, Ill.) were resuspended in 0.01 M sodium acetate buffer (pH 5.0) and reacted (20° C.×1 hr) with 1-ethyl-3-(3-dimethylaminopropyl) carbodiimide hydrochloride (EDC) (Sigma-Aldrich, Co., St. Louis, Mo.) at a ratio of 3.1 mg beads to 1 mg EDC. Beads were washed with sodium acetate buffer, resuspended in a minimal volume before adding purified mAb in the same buffer (ratio of 16 mg beads to 1 mg mAb), incubated (20° C.×2 hrs), then washed with sodium acetate buffer. Beads were resuspended at 5% in PBS containing 1% bovine serum albumin and 0.02% sodium azide.
as §1

[9] = system: total naïve splenic BALB/c B cells; settings: APC-labeled tetramer
Experimental: (§5) Cell isolation, serum collection, and PBMC isolations. Heparinized or non-heparanized blood was collected sub-mandibularly 10 days after immunizations. For preparation of peripheral blood lymphocytes for B cell tetramer analysis, PBMC were isolated from blood collected in heparinized tubes (0.2 ml) using Lympholyte M (Cederlane). For Luminex and ELISA assays, sera was isolated from non-heparanized blood and stored at −20° C. until use. Spleen, bone marrow (BM), and peritoneal cavity (PerC) cells were also collected. For most immunizations, tissues were harvested after the 4th boost, except for kinetic studies, in which tissues from mice were harvested after 1, 3 or 7 days after a single immunization. For BM preparations, femora and tibiae were removed, aspirated with tissue medium using 23 gauge needles, filtered with 70 μm cell strainers (BD labware), and RBC-depleted using Tris-buffered ammonium chloride lysis. For splenocyte preparation, spleens were harvested and dissociated into single-cell suspensions either by passage through 70 μm cell strainers in tissue medium or by using frosted glass slides, and blood erythrocytes were depleted with ammonium chloride lysis. For isolation of peritoneal cells, peritoneal cavities of sacrificed mice were lavaged by injection with 10 ml of PBS, followed by gentle massage of the abdomen, and withdrawal of the peritoneal exudates. BM, splenic, and peritoneal single cell suspensions were centrifuged at 1500 rpm for 5 min and resuspended in 5, 10, and 1 ml of tissue media, respectively, for cell counts and immunofluorescence staining. Cell counts were performed in duplicate on a Coulter ZI Dual Threshold Cell Counter (Coulter).
(§6) Antibodies and flow cytometry. Immunofluorescent staining of single cell suspensions (≧2×10^6) was conducted using pre-mixed combinations of fluorochrome-labeled antibodies and APC-conjugated B cell tetramers at empirically-determined optimal concentrations. All antibodies were from BD unless otherwise stated. […] Other reagents included biotinylated antibodies against dump channel markers: Thy1 (Ox7; Abcam), F4/80 (BM8; Abcam), CD11c (clone HL3), Gr-1 (clone RB6-8C5), TER-119, and NK-1.1 (clone PK136), secondary staining SA-Texas Red conjugate; v-amine live/dead violet dye (Molecular Probes), and Fc block (anti-CD16/32; clone 2.4G2).
(§7) Staining was conducted at 4° C. in several sequential steps in FACS staining buffer (1×PBS with 2% FCS, 0.1% NaN3), washing twice between steps. First, cells were incubated with v-amine live/dead dye for 15 min. Next, cells were stained with APC-labeled tetramers for 30 min. Where applicable, this was preceded by addition of cold tetramer at 10 fold molar excess for 1 h. Finally, cells were stained with Fc block for 30 min, followed by incubation with combinations of primary antibody cocktails for 30 min, and secondary staining with SA-Texas Red for 30 min.
(§8) Data were acquired using an LSRII flow cytometer and Cell Quest software (BD Immunocytometry systems). A minimum of 250000 events were acquired per sample. FACS Analysis was performed using FlowJo software (Tree Star). For analysis, single cells were positively gated based on their forward scatter height vs. forward scatter area and side scatter height vs. side scatter area profiles, lymphocytes were then positively gated based on their forward and side scatter profile (live lymphocyte gate), residual dead cells were excluded with negative gating on v-amine live/dead dye, and all irrelevant non-B cells were excluded with negative gating on dump markers Thy1, F4/80, CD11c, Gr-1, TER-119, and NK-1.1.

[10] = system: B cell subsets from naive C57BL/6 mice
Experimental: as §5, §6, §7, §8
To examine if gp41 2F5 MPER epitope reactivity across B cell subsets mapped similarly on the IgH^b allotype, reactivity to gp41 2F5 MPER tetramers was measured by measuring the percentage of APC-labeled gp41 2F5 MPER tetramer-reactive cells in C57BL/6 bone marrow, splenic, and peritoneal B cell subsets (Table 10).

[11] = system: F39F cells; settings: flow cytometry
Experimental: as §1

[12] = system: mAb F39F (anti-gp120 V3); settings: SPR, mAb F39F captured, 25° C., PBS pH 7.4
Experimental: as §2, §3

[13] = system: V3 loop mAbs 7B9 and F39F on beads; settings: flow cytometry
Experimental: as §4, §1

[14] = target: 62.19 V3 tetramer
Chain of 62.19 V3 tetramer (P22629 37-163 limits assumed): as above

[15] = target: 62.19 V3 tetramer; test: SPR, captured mAb, tetramer injected
[16] = target: B.con03 V3 tetramer; test: SPR, captured mAb, tetramer injected
Chain of B.con03 V3 tetramer (P22629 37-163 limits assumed): as above

[17] = system: 2F5 mAb; test: Binding of alanine substituted gp41 MPER tetramers to 2F5 (antibody-coated beads and SPR); design: species or system human; settings: flow cytometry on antibody-coated beads and SPR
Experimental: (§9) Data were analyzed using FlowJo (Tree Star, Ashland, Oreg.).
(§10) Development of gp41 MPER tetramers specific for neutralizing vs. non-neutralizing antibodies. […] Therefore, the next question asked was whether gp41 MPER tetramers could be made that preferentially react with either of these two prototype antibodies that would make it possible to discriminate between neutralizing 2F5-like gp41 MPER antibodies and non-neutralizing 13H11-like MPER antibodies. To address this issue, a series of gp41 MPER tetramers were made with alanine substitutions along the primary sequence (see Table 8) and assayed for the binding of 13H11 or 2F5 by flow cytometry on antibody-coated beads and by SPR (FIGS. 6C and 6D). […] Thus, tetramers made with the A13 or A15 mutant will bind B cells only with surface Ig similar to the non-neutralizing 13H11 antibody while tetramers made with the A14, A18, or A20 mutants will bind B cells only with surface Ig with specificities similar to the neutralizing 2F5 antibody.

[18] = system: 13H11 mAb; test: Binding of alanine substituted gp41 MPER tetramers to 13H11 (antibody-coated beads and SPR); design: species or system mouse; settings: flow cytometry on antibody-coated beads and SPR
Experimental: as §9, §10

Substance: 2F5 (antibody)
- koff [1]: 0.00037 s⁻¹
- kon [1]: 174000 M⁻¹ s⁻¹

Substance: 7B2 (antibody)
- koff [2]: 0.0011 s⁻¹
- kon [2]: 1200 M⁻¹ s⁻¹

Substance: 13H11 (antibody)
- percent of cells of the mixture stained with the tetramer over background [3]: 0.12%
- percent of cells of the mixture stained with the tetramer [4]: 1.47%
- koff [1]: 0.0081 s⁻¹
- kon [1]: 206000 M⁻¹ s⁻¹
- percent of cells of the mixture stained with the tetramer [5]: 15.1%

Substance: Biotin-GGGKQLQARVLAVERYLKDQQLLGIWGCSGKLICTTAV (cysteine pairing not given here) [gp41 ID tetramer]
- binding to mAb cell line [6]: bound
- koff [7]: 1.1 s^−1 × 10^−3
- kon [7]: 1.2 M^−1s^−1 × 10^3
- binding to antibody-coated beads [8]: bound only to mAb 7B2

Substance: Biotin-GGGNKEQDQAEESLQLWEKLNWL [gp41 MPER scrambled tetramer]
- binding to total naïve splenic B cells [9]: Negligible binding
- % of subset binding tetramer ± SEM ([10]; C57BL/6, Bone marrow, Immature): 0.10 ± 0.02%
- % of subset binding tetramer ± SEM ([10]; C57BL/6, Bone marrow, MF): 0.09 ± 0.02%
- % of subset binding tetramer ± SEM ([10]; C57BL/6, Bone marrow, Pro/pre): 0.06 ± 0.01%
- % of subset binding tetramer ± SEM ([10]; C57BL/6, Bone marrow, T1): 0.12 ± 0.02%
- % of subset binding tetramer ± SEM ([10]; C57BL/6, Bone marrow, T2): 0.11 ± 0.01%
- % of subset binding tetramer ± SEM ([10]; C57BL/6, Peritoneum, B1a): 0.14 ± 0.03%
- % of subset binding tetramer ± SEM ([10]; C57BL/6, Peritoneum, B1b): 0.13 ± 0.02%
- % of subset binding tetramer ± SEM ([10]; C57BL/6, Peritoneum, B2): 0.15 ± 0.03%
- % of subset binding tetramer ± SEM ([10]; C57BL/6, Spleen, MF): 0.11 ± 0.02%
- % of subset binding tetramer ± SEM ([10]; C57BL/6, Spleen, MZ): 0.09 ± 0.01%
- % of subset binding tetramer ± SEM ([10]; C57BL/6, Spleen, T1): 0.08 ± 0.01%
- % of subset binding tetramer ± SEM ([10]; C57BL/6, Spleen, T2): 0.10 ± 0.02%

Substance: Biotin-GGGQLDSIQKEVYQLGRQLVWCTARLATKLVGKACGIL (cysteine pairing not given here) [gp41 ID scrambled tetramer]
- binding to mAb cell line [6]: higher background
- binding to antibody-coated beads [8]: higher background

Substance: Biotin-GGGTRPNNNTRKSIHIGPGRAFYTTGEIIGDIRQAH [B.con03 V3 tetramer]
- binding to mAb cell line [11]: bound
- koff [12]: 0.65 s^−1 × 10^−3
- kon [12]: 83.4 M^−1s^−1 × 10^3
- binding to antibody-coated beads [13]: bound to both V3 loop mAbs 7B9 and F39F

Substance: F39F (antibody)
- % of cells in the tetramer-positive quadrant [14]: 6%
- % of cells positive for both tetramer and anti-IgG [14]: 6.34% and 6.22% and 6.05%
- koff [15]: 0.0006 s⁻¹
- kon [15]: 60500 M⁻¹ s⁻¹
- koff [16]: 0.00065 s⁻¹
- kon [16]: 83400 M⁻¹ s⁻¹

Substance: QQEKNEQELLELAKWASLWN (QQEKNEQELLELAKWASLWN; also: tetramer with streptavidin) [A13, alanine substituted gp41 MPER tetramer]
- binding to 2F5 mAb [17]: eliminated binding

Substance: QQEKNEQELLELDAWASLWN (QQEKNEQELLELDAWASLWN; also: tetramer with streptavidin) [A14, alanine substituted gp41 MPER tetramer]
- binding to non-neutralizing mAb 13H11 [18]: significantly reduced or eliminated binding

Substance: QQEKNEQELLELDKAASLWN (QQEKNEQELLELDKAASLWN; also: tetramer with streptavidin) [A15, alanine substituted gp41 MPER tetramer]
- binding to 2F5 mAb [17]: eliminated binding

Substance: QQEKNEQELLELDKWASAWN (Biotin-GGGQQEKNEQELLELDKWASAWN; also: tetramer with streptavidin) [A18, alanine substituted gp41 MPER tetramer]
- binding to non-neutralizing mAb 13H11 [18]: significantly reduced or eliminated binding

Substance: QQEKNEQELLELDKWASLWA (QQEKNEQELLELDKWASLWA; also: tetramer with streptavidin) [A20, alanine substituted gp41 MPER tetramer]
- binding to non-neutralizing mAb 13H11 [18]: significantly reduced or eliminated binding
